The target in test [1] is Voltage-dependent T-type calcium channel subunit alpha-1H (Homo sapiens) (UniProt O95180). As to the kind of experiment: Ability to block calcium channel T type 3.2v expressed in Xenopus oocytes at 100 uM by two-microelectrode voltage-clamp method. Format: functional, cell-based. Conditions: Oocyte.
For test [2], the target named is T1, Voltage-dependent T-type calcium channel subunit alpha-1G (Homo sapiens, UniProt O43497). The test is described as follows: Ability to block calcium channel T type 3.1v expressed in HEK293 cells at 10 uM by whole cell patch clamp method. The test is classed as functional, cell-based.
T1 sequence (O43497 whole entry): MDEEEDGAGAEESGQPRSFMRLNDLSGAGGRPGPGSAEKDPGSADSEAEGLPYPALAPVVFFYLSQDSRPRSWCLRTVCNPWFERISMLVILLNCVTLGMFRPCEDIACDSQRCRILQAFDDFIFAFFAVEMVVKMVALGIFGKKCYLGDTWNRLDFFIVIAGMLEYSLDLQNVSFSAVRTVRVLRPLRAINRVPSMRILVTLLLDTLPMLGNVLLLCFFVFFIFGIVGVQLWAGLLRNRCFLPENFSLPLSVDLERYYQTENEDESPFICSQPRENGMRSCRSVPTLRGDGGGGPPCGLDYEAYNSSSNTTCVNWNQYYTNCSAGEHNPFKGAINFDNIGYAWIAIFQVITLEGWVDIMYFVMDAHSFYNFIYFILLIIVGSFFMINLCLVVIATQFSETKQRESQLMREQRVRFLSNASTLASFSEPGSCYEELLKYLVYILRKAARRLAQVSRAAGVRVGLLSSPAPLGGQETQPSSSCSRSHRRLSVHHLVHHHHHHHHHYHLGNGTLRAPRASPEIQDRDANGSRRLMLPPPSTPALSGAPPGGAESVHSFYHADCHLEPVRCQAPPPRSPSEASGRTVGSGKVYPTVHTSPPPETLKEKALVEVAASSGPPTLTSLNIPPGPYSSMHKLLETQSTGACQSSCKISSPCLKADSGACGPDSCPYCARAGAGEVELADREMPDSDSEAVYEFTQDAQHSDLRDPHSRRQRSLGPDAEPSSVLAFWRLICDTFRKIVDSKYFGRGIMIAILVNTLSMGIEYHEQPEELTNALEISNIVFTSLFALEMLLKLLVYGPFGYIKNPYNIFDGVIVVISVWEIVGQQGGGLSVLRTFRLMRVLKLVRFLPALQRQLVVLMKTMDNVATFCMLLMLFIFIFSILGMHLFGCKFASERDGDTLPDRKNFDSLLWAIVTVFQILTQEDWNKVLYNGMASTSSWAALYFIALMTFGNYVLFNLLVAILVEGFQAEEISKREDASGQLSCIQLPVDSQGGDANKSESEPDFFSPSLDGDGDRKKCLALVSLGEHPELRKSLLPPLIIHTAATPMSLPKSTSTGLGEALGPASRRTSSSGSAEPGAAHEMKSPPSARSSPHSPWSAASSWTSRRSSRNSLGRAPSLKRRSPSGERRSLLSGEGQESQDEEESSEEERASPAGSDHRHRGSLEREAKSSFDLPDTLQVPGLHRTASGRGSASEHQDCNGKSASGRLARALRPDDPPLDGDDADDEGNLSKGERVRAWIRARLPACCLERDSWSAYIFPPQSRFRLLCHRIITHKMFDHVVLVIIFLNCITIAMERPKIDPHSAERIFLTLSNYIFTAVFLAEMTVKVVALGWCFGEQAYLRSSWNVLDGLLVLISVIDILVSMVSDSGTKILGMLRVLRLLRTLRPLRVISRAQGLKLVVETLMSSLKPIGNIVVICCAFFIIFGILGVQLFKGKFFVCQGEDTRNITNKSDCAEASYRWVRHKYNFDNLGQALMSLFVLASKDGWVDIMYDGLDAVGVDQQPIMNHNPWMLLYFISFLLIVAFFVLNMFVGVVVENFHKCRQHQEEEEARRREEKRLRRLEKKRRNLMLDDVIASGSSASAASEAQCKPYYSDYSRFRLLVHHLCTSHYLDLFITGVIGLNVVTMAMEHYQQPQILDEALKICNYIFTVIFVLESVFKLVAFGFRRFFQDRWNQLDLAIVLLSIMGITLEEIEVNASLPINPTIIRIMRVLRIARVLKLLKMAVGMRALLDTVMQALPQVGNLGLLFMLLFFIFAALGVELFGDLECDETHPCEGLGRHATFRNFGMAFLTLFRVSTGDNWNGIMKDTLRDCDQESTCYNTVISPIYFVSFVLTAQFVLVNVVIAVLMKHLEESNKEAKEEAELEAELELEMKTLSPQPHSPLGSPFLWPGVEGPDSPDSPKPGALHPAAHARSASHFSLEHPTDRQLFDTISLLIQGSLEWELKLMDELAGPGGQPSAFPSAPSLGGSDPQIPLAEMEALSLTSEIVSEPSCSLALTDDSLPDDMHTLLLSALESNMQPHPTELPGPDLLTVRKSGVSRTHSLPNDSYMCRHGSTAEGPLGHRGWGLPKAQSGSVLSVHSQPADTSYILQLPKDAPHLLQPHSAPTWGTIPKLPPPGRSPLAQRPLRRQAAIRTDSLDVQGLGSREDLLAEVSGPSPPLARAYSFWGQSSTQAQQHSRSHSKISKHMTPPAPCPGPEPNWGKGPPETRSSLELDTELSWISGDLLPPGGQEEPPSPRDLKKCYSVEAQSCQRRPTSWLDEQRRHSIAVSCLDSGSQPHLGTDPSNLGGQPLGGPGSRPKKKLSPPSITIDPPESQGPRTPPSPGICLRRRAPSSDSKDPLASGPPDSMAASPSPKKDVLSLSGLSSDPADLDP
The target in test [3] is T1, Voltage-dependent T-type calcium channel subunit alpha-1G. The test is described as follows: Ability to block calcium channel T type 3.1v expressed in HEK293 cells by whole cell patch clamp method. Format: functional, cell-based.
Test [4] deals with Voltage-dependent N-type calcium channel subunit alpha-1B (Homo sapiens) (UniProt Q00975). As to the kind of experiment: Ability to block calcium channel N type 2.2v expressed in HEK293 cells at 10 uM by whole cell patch clamp method. Format: functional, cell-based.
Voltage-dependent N-type calcium channel subunit alpha-1B (Homo sapiens), sequence (Q00975 whole entry, looked up): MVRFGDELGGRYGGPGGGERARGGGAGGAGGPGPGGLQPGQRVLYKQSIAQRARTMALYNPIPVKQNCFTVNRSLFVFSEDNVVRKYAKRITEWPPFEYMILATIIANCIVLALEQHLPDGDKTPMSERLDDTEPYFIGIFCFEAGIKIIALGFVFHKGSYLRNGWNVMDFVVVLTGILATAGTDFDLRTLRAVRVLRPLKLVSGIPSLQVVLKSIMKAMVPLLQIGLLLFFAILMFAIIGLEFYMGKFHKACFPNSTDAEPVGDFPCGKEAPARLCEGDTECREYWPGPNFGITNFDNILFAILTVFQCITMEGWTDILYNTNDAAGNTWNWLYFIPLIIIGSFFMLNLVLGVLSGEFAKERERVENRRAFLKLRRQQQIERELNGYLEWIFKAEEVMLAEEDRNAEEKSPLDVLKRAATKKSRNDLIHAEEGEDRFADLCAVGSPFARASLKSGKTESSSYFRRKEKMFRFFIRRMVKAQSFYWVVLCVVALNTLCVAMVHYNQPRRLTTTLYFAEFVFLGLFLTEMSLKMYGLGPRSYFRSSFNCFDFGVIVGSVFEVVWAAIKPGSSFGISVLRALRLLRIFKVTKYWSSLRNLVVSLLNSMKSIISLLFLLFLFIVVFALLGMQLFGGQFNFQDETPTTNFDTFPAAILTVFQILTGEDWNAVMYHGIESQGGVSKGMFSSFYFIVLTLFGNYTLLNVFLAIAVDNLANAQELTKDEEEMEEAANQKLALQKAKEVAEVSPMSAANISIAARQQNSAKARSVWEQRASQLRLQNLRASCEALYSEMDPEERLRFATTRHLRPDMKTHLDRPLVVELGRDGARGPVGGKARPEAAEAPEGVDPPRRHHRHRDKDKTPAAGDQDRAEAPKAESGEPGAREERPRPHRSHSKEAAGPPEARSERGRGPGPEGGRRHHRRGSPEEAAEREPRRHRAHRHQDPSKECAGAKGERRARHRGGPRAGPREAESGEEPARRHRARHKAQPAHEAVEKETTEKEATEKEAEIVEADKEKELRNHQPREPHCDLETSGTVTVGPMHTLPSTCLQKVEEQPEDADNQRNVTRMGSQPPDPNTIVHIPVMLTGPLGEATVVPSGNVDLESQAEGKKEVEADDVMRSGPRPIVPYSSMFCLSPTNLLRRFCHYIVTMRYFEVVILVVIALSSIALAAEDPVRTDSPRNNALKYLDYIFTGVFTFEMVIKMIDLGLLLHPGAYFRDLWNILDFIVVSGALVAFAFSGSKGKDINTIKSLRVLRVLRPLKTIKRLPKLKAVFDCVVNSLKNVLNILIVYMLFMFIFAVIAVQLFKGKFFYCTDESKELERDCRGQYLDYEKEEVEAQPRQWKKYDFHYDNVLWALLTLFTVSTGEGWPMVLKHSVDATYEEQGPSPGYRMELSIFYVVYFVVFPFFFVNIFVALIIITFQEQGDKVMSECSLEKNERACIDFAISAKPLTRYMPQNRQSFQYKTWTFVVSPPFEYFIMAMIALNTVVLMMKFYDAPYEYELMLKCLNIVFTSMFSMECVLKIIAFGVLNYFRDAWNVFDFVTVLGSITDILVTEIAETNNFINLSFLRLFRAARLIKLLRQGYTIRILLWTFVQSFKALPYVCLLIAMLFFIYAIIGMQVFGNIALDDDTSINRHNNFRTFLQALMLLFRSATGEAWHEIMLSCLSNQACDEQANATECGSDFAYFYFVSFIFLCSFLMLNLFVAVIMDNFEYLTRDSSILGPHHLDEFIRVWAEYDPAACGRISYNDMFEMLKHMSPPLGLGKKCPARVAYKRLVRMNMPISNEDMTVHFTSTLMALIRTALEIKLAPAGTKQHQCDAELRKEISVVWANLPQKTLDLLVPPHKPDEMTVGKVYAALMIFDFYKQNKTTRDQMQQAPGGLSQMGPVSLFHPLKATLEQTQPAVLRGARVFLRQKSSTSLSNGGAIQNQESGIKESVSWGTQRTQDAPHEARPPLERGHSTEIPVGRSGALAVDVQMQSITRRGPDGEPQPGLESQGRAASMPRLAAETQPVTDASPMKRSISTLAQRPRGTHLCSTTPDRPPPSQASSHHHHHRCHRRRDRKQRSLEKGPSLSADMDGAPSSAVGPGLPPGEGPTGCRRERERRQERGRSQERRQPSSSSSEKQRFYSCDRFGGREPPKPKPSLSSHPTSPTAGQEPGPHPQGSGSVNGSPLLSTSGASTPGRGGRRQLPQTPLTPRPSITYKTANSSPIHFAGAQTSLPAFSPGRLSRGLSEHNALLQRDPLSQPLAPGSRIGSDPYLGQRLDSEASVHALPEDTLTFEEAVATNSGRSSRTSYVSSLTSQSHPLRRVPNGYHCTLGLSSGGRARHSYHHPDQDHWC
For the next test, the species on record is Homo sapiens. As to the kind of experiment: Selectivity for calcium channel N type 2.2v over calcium channel T type 3.1v. Format: functional.

Turning to `C[C@H](NC(=O)[C@H]1COC(=O)[C@H](Cc2ccc(F)cc2)N1)c1ccccc1`, the values for the inhibition in test [1], in test [2] and in test [4] were 83.6%, 80.8% and 11.3%, respectively. In test [3], the IC50 amounted to 1480 nM. Moreover, the Ratio in the test filed under Homo sapiens came to 7.2.
`C[C@H](NC(=O)[C@@H]1COC(=O)[C@H](Cc2ccc([N+](=O)[O-])cc2)N1)c1ccccc1`: the values for the inhibition in test [1], in test [2] and in test [4] were 60.8%, 80.2% and 4%, respectively. In addition, the IC50 in test [3] is 2130 nM. Further, the Ratio in the test listed under Homo sapiens was found to be 20.1.
Regarding `C[C@H](NC(=O)[C@@H]1COC(=O)[C@H](Cc2ccc(Cl)cc2)N1)c1ccccc1`, the figures for the inhibition in test [1], in test [2] and in test [4] were 48.4%, 64% and 10.9%, respectively. In addition, in test [3], the IC50 is 1610 nM. Moreover, in the test listed under Homo sapiens, the Ratio was found to be 5.9.
Take `C[C@H](NC(=O)[C@H]1COC(=O)[C@H](Cc2ccc(Cl)cc2)N1)c1ccccc1`: the inhibition in test [1] turned out to be 73.3%; in test [2] it was 79%; in test [4], 4%. In addition, the half-maximal inhibitory concentration (IC50) in test [3] was 1330 nM. Further, the Ratio in the test filed under Homo sapiens was 19.8.
Consider `CCC(C)[C@@H]1N[C@H](C(=O)NCc2ccccc2)COC1=O` (stereo not given in full), for which the inhibition in test [1] came out at 70%; in test [2], 63.4%; in test [4] it was 1.7%. Further, the IC50 in test [3] worked out at 1220 nM. For the same molecule, the Ratio in the test listed under Homo sapiens was 37.3.
In the case of `C[C@H](NC(=O)[C@@H]1COC(=O)[C@H](Cc2ccc(O)cc2)N1)c1ccccc1`, the results for the inhibition in test [1], in test [2] and in test [4] were 45.8%, 77% and 4.7%, respectively. Further, the IC50 in test [3] was found to be 1390 nM. The Ratio in the test listed under Homo sapiens was found to be 16.4.
Regarding `COCC(=O)O[C@]1(CCN(C)CCCc2nc3ccccc3[nH]2)CCc2cc(F)ccc2[C@@H]1C(C)C`, the inhibition in test [2] came out at 89.8%; in test [4], 57.4%.
As for `C[C@H](NC(=O)[C@@H]1COC(=O)[C@H](Cc2ccc(F)cc2)N1)c1ccccc1`, the inhibition in test [1] turned out to be 35.6%.
Still for that read-out and setting: the result for `C[C@H](NC(=O)[C@H]1COC(=O)[C@H](Cc2ccc(O)cc2)N1)c1ccccc1` reads 27.6%.
As to `C[C@H](NC(=O)[C@H]1COC(=O)[C@H](Cc2ccc([N+](=O)[O-])cc2)N1)c1ccccc1`, the inhibition in test [1] is 25.2%.
As to `COc1ccc(C[C@@H]2N[C@H](C(=O)NCc3ccccc3)COC2=O)cc1` (relative stereo), the results for the inhibition in test [1], in test [2] and in test [4] were 54.6%, 74% and 2.5%, respectively. For the same molecule, the IC50 in test [3] amounted to 2040 nM. Further, the Ratio in the test listed under Homo sapiens was determined as 29.6.
For `CSCC[C@@H]1N[C@H](C(=O)NCc2ccccc2)COC1=O` (relative stereo), in that order: 74%, 75.1%, 15.4%, 1860 nM and 4.9.
The like results for `O=C(NCc1ccccc1)[C@@H]1COC(=O)[C@H](Cc2ccc(F)cc2)N1` (relative stereo) were, in that order, 70.9%, 77.6%, 7.1%, 2750 nM and 10.9.
On to `O=C(NC1CCCCC1)[C@@H]1COC(=O)[C@H](Cc2ccccc2)N1` (relative stereo), for which the inhibition in test [1] stood at 76%; in test [2] it was 73.6%; in test [4], 9.4%. Further, the IC50 in test [3] was 2180 nM. Moreover, the Ratio in the test listed under Homo sapiens is 7.8.
For `O=C(NCc1ccccc1)[C@@H]1COC(=O)[C@H](Cc2ccccc2)N1` (relative stereo), in that order: 87%, 78.9%, 4.8%, 1010 nM and 16.4.
For `O=C(NCc1ccccc1)[C@@H]1COC(=O)[C@H](Cc2ccc(Cl)cc2)N1` (relative stereo), the inhibition in test [1] stood at 73.5%; in test [2], 83.6%; in test [4], 33.7%. The IC50 in test [3] was determined as 450 nM. Further, the Ratio in the test filed under Homo sapiens was 2.5.
For the molecule `CC(C)[C@@H]1N[C@H](C(=O)NCc2ccccc2)COC1=O` (relative stereo), the results for the inhibition in test [1], in test [2] and in test [4] were 82%, 78.8% and 25.3%, respectively. The IC50 in test [3] was 990 nM. For the same molecule, the Ratio in the test filed under Homo sapiens was found to be 3.1.
For `O=C(NCc1ccccc1)[C@@H]1COC(=O)[C@H](Cc2ccc([N+](=O)[O-])cc2)N1` (relative stereo), in that order: 74.8%, 86.2%, 7.6%, 1130 nM and 11.3.
Regarding `CC(C)(C)NC(=O)[C@@H]1COC(=O)[C@H](Cc2ccccc2)N1` (relative stereo), the inhibition in test [1] worked out at 43%.
As to `CC(C)(C)NC(=O)[C@H]1COC(=O)[C@H](Cc2ccccc2)N1` (relative stereo), in test [1], the inhibition is 42%.
On the same count and under the same terms, with `COc1ccc(C[C@@H]2N[C@@H](C(=O)NCc3ccccc3)COC2=O)cc1` (relative stereo) the figure was 16.2%; with `Cc1ccc(S(=O)(=O)CNC(=O)[C@@H]2COC(=O)[C@H](Cc3ccccc3)N2)cc1` (relative stereo), 13%; with `Cc1ccc(S(=O)(=O)CNC(=O)[C@H]2COC(=O)[C@H](Cc3ccccc3)N2)cc1` (relative stereo), 25%.
Same read-out and setting: the result for `O=C1OC[C@H](C(=O)NC2CCCCC2)N[C@H]1Cc1ccccc1` (relative stereo) reads 30.3%; that for `O=C1OC[C@H](C(=O)NCc2ccccc2)N[C@H]1Cc1ccc(Cl)cc1` (relative stereo), 19.1%.
Turning to `O=C1OC[C@H](C(=O)NCc2ccccc2)N[C@H]1Cc1ccc(F)cc1` (relative stereo), the inhibition in test [1] worked out at 12.3%.
In the case of `O=C1OC[C@H](C(=O)NCc2ccccc2)N[C@H]1Cc1ccc([N+](=O)[O-])cc1` (relative stereo), the inhibition in test [1] amounted to 6.5%.
Regarding `O=C1OC[C@H](C(=O)NCc2ccccc2)N[C@H]1Cc1ccccc1` (relative stereo), the inhibition in test [1] was 5%.

Values taken from ChEMBL document CHEMBL1148674, “Morpholin-2-one derivatives as novel selective T-type Ca2+ channel blockers” (Bioorg Med Chem Lett, 2006).
